Our source for the MIC values is DBAASP.

In brackets after ≈: the same amount, converted by molar mass. Some results are limits rather than exact numbers.

Some test systems named below: Escherichia coli E416-7; Escherichia coli C25; Escherichia coli BW25113; Escherichia coli MC1041; Escherichia coli JW0013; Escherichia coli J2210; Escherichia coli JJ2489.
What all share (assay): ≥ marks a high value that may be exact or a test limit, other limits are often not marked, values filed in µg/mL are converted to µM
In experiment [1] the test system is Staphylococcus aureus M838-17.
Experiment [2] deals with Escherichia coli ATCC 25922.
Experiment [3] has as its system Staphylococcus aureus JE2.
The subject of experiment [4] is Pseudomonas aeruginosa E411-17.
The test system of experiment [5] is Enterococcus faecium V286-17.
The test system of experiment [6] is Klebsiella pneumoniae ATCC 13883.
Experiment [7] deals with Klebsiella pneumoniae E406-17.
The test system of experiment [8] is Pseudomonas aeruginosa PAO1.
For experiment [9], the system named is Staphylococcus aureus CCT 6538.
For experiment [10], the system named is Bacillus thuringiensis ATCC 10792.
Experiment [11] has as its system Salmonella enterica subsp. enterica serovar Choleraesuis ATCC 10708.
For experiment [12], the system named is Enterococcus hirae ATCC 10541.
The test system of experiment [13] is Staphylococcus aureus CCT 2580.
Experiment [14] deals with Pseudomonas aeruginosa ATCC 13388.
The test system of experiment [15] is Streptococcus pneumoniae ATCC 11733.
Experiment [16] has as its system Escherichia coli CCT 1457.
The test system of experiment [17] is Staphylococcus aureus ATCC 25923.
The subject of experiment [18] is Pseudomonas aeruginosa ATCC 15422.
The test system of experiment [19] is Enterococcus faecium CCT 5079.
The subject of experiment [20] is Escherichia coli ATCC 11775.
The test system of experiment [21] is Streptococcus mutans AU159.
Experiment [22] relates to Staphylococcus epidermidis ATCC 12228.
The subject of experiment [23] is Salmonella enterica subsp. enterica serovar Typhimurium ATCC 14028.
Experiment [24] relates to Micrococcus luteus ATCC 4698.
Experiment [25] deals with Bacillus cereus ATCC 11778.
Experiment [26] concerns Pseudomonas aeruginosa ATCC BAA-2114.
Experiment [27] concerns Escherichia coli ATCC 35218.
The test system of experiment [28] is Staphylococcus aureus ATCC 33591.
Experiment [29] relates to Staphylococcus aureus ATCC 29213.
The subject of experiment [30] is Staphylococcus aureus ATCC 43300.
For experiment [31], the system named is Staphylococcus aureus ATCC BAA-41.
In experiment [32] the test system is Enterococcus faecium ATCC BAA-2316.
Experiment [33] concerns Escherichia coli BW25113 ΔsbmA.
Experiment [34] deals with Escherichia coli JW2778 ΔygdD.
The test system of experiment [35] is Salmonella typhimurium SL1344.
For experiment [36], the system named is Salmonella enterica subsp. enterica serovar Enteritidis MH91989.
For experiment [37], the system named is Escherichia coli JW0368 ΔsbmA.

With `CC(C)C[C@H](NC(=O)[C@H](CC(C)C)NC(=O)[C@H](CCCCN)NC(=O)[C@H](CC(C)C)NC(=O)CNC(=O)[C@H](CC(C)C)NC(=O)[C@H](CO)NC(=O)[C@H](CC(C)C)NC(=O)[C@H](CC(C)C)NC(=O)[C@H](CC(C)C)NC(=O)[C@H](CO)NC(=O)[C@H](CC(C)C)NC(=O)CN)C(N)=O` [GLSLLLSLGLKLL], the MIC (usually the lowest concentration that inhibits growth of the organism) is not below 50 µM in the experiment on Escherichia coli E416-7; 3.1 µM (≈ 4.15 µg/mL) in [1]; more than 25 µM in experiment [2]; 1.56 µM (≈ 2.09 µg/mL) in experiment [3]; not below 50 µM in experiment [4]; 4.4 µM (≈ 5.89 µg/mL) in experiment [5]. Also, the MIC is 25 µM (≈ 33.5 µg/mL) in [6], not below 50 µM in [7] and more than 25 µM in experiment [8].
As for `CC[C@H](C)[C@H](N)C(=O)N[C@@H](CC(N)=O)C(=O)N[C@@H](Cc1c[nH]c2ccccc12)C(=O)N[C@@H](CC(C)C)C(=O)N[C@@H](C)C(=O)N[C@H](C(=O)N[C@@H](C)C(=O)N[C@@H](C)C(=O)N[C@@H](CCCCN)C(=O)N[C@H](C(=O)N[C@@H](C)C(=O)NCC(=O)N[C@@H](CCSC)C(=O)N[C@@H](CC(C)C)C(N)=O)C(C)C)[C@@H](C)CC` [INWLAIAAKVAGML], the MIC in [9] is 10.9 µM (≈ 16 µg/mL); in experiment [10], not below 85 µM; in [11], not below 340 µM; in experiment [12], not below 170 µM; in [2], 170 µM (≈ 250 µg/mL); in [13] it was 2.72 µM (≈ 4 µg/mL). Further, the MIC in experiment [14] was not below 340 µM; in experiment [15] it was 0.68 µM (≈ 0.999 µg/mL); in experiment [16], not below 170 µM; in [17] it was 10.9 µM (≈ 16 µg/mL); in [18], not below 340 µM; in experiment [19], not below 170 µM. In addition, the MIC in experiment [20] was not below 340 µM; in experiment [21] it was not below 170 µM; in experiment [22], 10.9 µM (≈ 16 µg/mL); in experiment [23] it was 340 µM (≈ 500 µg/mL); in experiment [24], 10.6 µM (≈ 15.6 µg/mL); in [25], not below 85 µM.
Consider `CC[C@H](C)[C@H](NC(=O)[C@H](CCCN=C(N)N)NC(=O)[C@H](CCC(N)=O)NC(=O)[C@@H](NC(=O)[C@@H](NC(=O)[C@H](CCCN=C(N)N)NC(=O)[C@H](CCCCN)NC(=O)[C@H](Cc1ccccc1)NC(=O)[C@@H](NC(=O)[C@@H]1CCCN1C(=O)[C@H](CO)NC(=O)[C@H](CC(C)C)NC(=O)[C@H](CCCCN)NC(=O)[C@H](CCCCN)NC(=O)[C@H](Cc1ccccc1)NC(=O)[C@H](CC(C)C)NC(=O)[C@H](CCCCN)NC(=O)[C@H](CCCCN)NC(=O)[C@H](Cc1ccccc1)NC(=O)[C@@H](N)CCCCN)C(C)C)[C@@H](C)CC)C(C)C)C(=O)N[C@@H](CCCCN)C(=O)N[C@@H](CC(=O)O)C(=O)N[C@@H](Cc1ccccc1)C(=O)N[C@@H](CC(C)C)C(=O)N[C@@H](CCCN=C(N)N)C(=O)O` [KFKKLFKKLSPVFKRIVQRIKDFLR], for which the MIC in experiment [26] stood at 10 µM (≈ 31.6 µg/mL); in experiment [2], 20 µM (≈ 63.3 µg/mL); in [27] it was 20 µM (≈ 63.3 µg/mL); in [28] it was 20 µM (≈ 63.3 µg/mL); in experiment [29], 20 µM (≈ 63.3 µg/mL); in [30], 20 µM (≈ 63.3 µg/mL). Also, the MIC in experiment [31], in experiment [22] and in experiment [32] was 20 µM (≈ 63.3 µg/mL) in each case.
For `CC[C@H](C)[C@H](NC(=O)CNC(=O)[C@H](CCCN=C(N)N)NC(=O)[C@H](Cc1ccc(O)cc1)NC(=O)[C@@H](NC(=O)[C@H](CCCN=C(N)N)NC(=O)[C@H](Cc1ccccc1)NC(=O)[C@H](Cc1c[nH]c2ccccc12)NC(=O)[C@@H](N)CCCCN)C(C)C)C(=O)N[C@@H](Cc1ccc(O)cc1)C(=O)N[C@@H](CCCN=C(N)N)C(N)=O` [KWFRVYRGIYR], the MIC in [17] stood at 17 µM (≈ 26.2 µg/mL); against Escherichia coli C25 it was 8.5 µM (≈ 13.1 µg/mL).
For the compound `CC[C@H](C)[C@H](NC(=O)[C@@H]1CCCN1C(=O)[C@@H]1CCCN1C(=O)[C@H](CCCN=C(N)N)NC(=O)[C@H](Cc1ccccc1)NC(=O)[C@@H](N)CCCN=C(N)N)C(=O)N[C@@H](CCCN=C(N)N)C(=O)N[C@@H](CCCN=C(N)N)C(=O)N1CCC[C@H]1C(=O)N1CCC[C@H]1C(=O)N[C@H](C(=O)N[C@@H](CCCN=C(N)N)C(=O)N1CCC[C@H]1C(=O)N1CCC[C@H]1C(=O)N[C@@H](Cc1ccccc1)C(=O)N[C@@H](CCCN=C(N)N)C(=O)N1CCC[C@H]1C(=O)N1CCC[C@H]1C(=O)N[C@@H](Cc1ccccc1)C(=O)N[C@@H](CCCN=C(N)N)C(=O)N1CCC[C@H]1C(=O)N1CCC[C@H]1C(=O)N[C@H](C(=O)N[C@@H](CCCN=C(N)N)C(=O)N1CCC[C@H]1C(=O)O)C(C)C)[C@@H](C)CC` [RFRPPIRRPPIRPPFRPPFRPPVRP], the MIC was 1 µM (≈ 3.1 µg/mL) in the experiment with Escherichia coli BW25113 and 8 µM (≈ 24.8 µg/mL) in experiment [33].
In the case of `CC[C@H](C)[C@H](NC(=O)[C@H](CCCN=C(N)N)NC(=O)[C@@H](N)CCCN=C(N)N)C(=O)N[C@@H](CCCCN)C(=O)N[C@@H](CCCCN)C(=O)N[C@@H](CCCN=C(N)N)C(=O)N1CCC[C@H]1C(=O)N1CCC[C@H]1C(=O)N[C@@H](CCCN=C(N)N)C(=O)N[C@@H](CC(C)C)C(=O)N1CCC[C@H]1C(=O)N[C@@H](CCCN=C(N)N)C(=O)N1CCC[C@H]1C(=O)N[C@@H](CCCN=C(N)N)C(=O)N1CCC[C@H]1C(=O)N[C@@H](CCCCN)C(=O)O` [RRIKKRPPRLPRPRPK], the MIC in the experiment on Escherichia coli BW25113 came out at 0.078 µM (≈ 0.16 µg/mL); in experiment [34] it was 0.12 µM (≈ 0.246 µg/mL); in the experiment with Escherichia coli MC1041, 0.06 µM (≈ 0.123 µg/mL); in the experiment with Escherichia coli JW0013, 0.06 µM (≈ 0.123 µg/mL); in experiment [35], 0.12 µM (≈ 0.246 µg/mL); against Escherichia coli J2210, 0.167 µM (≈ 0.343 µg/mL). Also, the MIC was found to be 0.167 µM (≈ 0.343 µg/mL) in experiment [36], 0.12 µM (≈ 0.246 µg/mL) against Escherichia coli JJ2489 and 0.06 µM (≈ 0.123 µg/mL) in [37].
